These results are taken from ChEMBL document CHEMBL1131149, “Acetylcholinesterase noncovalent inhibitors based on a polyamine backbone for potential use against Alzheimer's disease” (J Med Chem, 1998).

pIC50, pKi: −log10 of the molar value.

For experiment [1], the target named is Cholinesterase (Homo sapiens, UniProt P06276).
Description: Inhibition of Butyrylcholinesterase (BChE) of human erythrocytes [-log IC50 (uM)]
Experiment [2] has as its target T1, Acetylcholinesterase (Homo sapiens, UniProt P22303).
Description: Inhibition of acetylcholinesterase (AChE) of human erythrocytes
Experiment [3] has as its target T1, Acetylcholinesterase. This is another data set of the same source.
Description: Inhibition constant determined against Acetylcholinesterase (AChE) receptor.

Cholinesterase, sequence (P06276 whole entry): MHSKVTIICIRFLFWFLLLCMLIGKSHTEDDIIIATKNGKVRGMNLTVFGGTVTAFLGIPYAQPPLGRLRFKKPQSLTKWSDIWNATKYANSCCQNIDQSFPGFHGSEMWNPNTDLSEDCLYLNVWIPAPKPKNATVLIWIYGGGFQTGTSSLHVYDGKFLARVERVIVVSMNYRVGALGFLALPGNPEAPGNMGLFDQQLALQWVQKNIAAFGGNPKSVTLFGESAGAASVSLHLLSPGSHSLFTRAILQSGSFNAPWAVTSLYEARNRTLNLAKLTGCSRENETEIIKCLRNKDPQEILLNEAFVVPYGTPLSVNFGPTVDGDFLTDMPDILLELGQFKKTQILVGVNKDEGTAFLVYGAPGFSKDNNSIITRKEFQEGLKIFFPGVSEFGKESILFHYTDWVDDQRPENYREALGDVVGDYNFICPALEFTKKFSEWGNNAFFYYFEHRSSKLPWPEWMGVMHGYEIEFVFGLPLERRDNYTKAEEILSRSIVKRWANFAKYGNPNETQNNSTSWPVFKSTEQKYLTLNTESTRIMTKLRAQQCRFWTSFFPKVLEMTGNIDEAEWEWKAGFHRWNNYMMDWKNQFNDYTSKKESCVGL
T1 sequence (P22303 whole entry): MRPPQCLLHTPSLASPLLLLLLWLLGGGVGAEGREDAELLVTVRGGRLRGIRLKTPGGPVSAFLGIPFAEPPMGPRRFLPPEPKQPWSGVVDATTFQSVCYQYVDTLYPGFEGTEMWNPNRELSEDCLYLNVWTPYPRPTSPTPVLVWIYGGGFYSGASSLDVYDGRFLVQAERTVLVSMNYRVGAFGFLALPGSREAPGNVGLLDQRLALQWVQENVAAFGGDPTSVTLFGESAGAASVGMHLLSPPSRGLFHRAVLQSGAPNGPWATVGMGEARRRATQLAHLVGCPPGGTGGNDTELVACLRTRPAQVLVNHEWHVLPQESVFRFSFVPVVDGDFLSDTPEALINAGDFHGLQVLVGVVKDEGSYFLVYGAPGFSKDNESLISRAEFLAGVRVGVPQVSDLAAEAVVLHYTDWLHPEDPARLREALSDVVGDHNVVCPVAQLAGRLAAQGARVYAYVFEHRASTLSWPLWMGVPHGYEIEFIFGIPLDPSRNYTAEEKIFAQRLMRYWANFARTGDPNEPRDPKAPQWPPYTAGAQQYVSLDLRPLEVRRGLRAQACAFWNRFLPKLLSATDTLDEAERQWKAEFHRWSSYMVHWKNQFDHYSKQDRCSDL

`COc1ccccc1CNCCCCCCNCCCCCCNCCCCCCNCc1ccccc1OC`: the pIC50 (as a rule, the negative decadic logarithm of the IC50, by convention in mol/L) in experiment [1] was 5.86; in experiment [2], 5.19.
Take `COc1ccccc1CNCCCCCCNCCCCCCCCNCCCCCCNCc1ccccc1OC` [METHOCTRAMINE]: the pIC50 in experiment [1] is 6.01.
Consider `COc1ccccc1CNCCCCCC(=O)NCCCCCCCCNC(=O)CCCCCNCc1ccccc1OC`, for which the pIC50 is 4.94 in experiment [1] and 5.73 in experiment [2].
For the compound `COc1ccccc1CNCCCCCCNCCCCCNCCCCCCNCc1ccccc1OC`, the pIC50 was 5.06 in experiment [1] and 5.14 in experiment [2].
Regarding `NCCCCCCNCCSSCCNCCCCCCN`, the values for the pIC50 in experiment [1] and in experiment [2] were 3.19 and 3.30, respectively.
In the case of `COc1ccccc1CN(C)CCCCCC(=O)N(C)CCCCCCCCN(C)C(=O)CCCCCN(C)Cc1ccccc1OC` [CAPROCTAMINE], the values for the pIC50 in experiment [1] and in experiment [2] were 4.93 and 6.77, respectively. The pKi (usually −log10 of the Ki, conventionally taken in molar units) in experiment [3] was 9.98.
Take `COc1ccccc1CNCCCCCCNCCCCCCCNCCCCCCNCc1ccccc1OC`: the negative-log IC50 (pIC50) in experiment [1] was 5.43.
`COc1ccccc1CNCCCCCCNCCSSCCNCCCCCCNCc1ccccc1OC` [BENEXTRAMINE]: the pIC50 in experiment [1] was 5.21; in experiment [2] it was 5.14.
The corresponding values for `COc1ccccc1CNCCCCCC(=O)N(C)CCCCCCCCN(C)C(=O)CCCCCNCc1ccccc1OC` are 5.22 and 6.51.
